Experimental data as given in ChEMBL document CHEMBL1201861, “Genomics of Drug Sensitity in Cancer screening data, Wellcome Trust Sanger Institute”.

How the values were obtained:
DMS-153 = test: cells; assay type: functional, cell-based, Homo sapiens; settings: Homo sapiens, DMS-153
Description: SANGER: Inhibition of human DMS-153 cell growth in a cell viability assay.

SNU-16 = test: cells; assay type: functional, cell-based, Homo sapiens; settings: Homo sapiens, SNU-16;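 also: growth inhibition of human SNU-16 cells, determined with a cell viability readout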
Description: SANGER: Inhibition of human NCI-SNU-16 cell growth in a cell viability assay.

C32 = test: cells; assay type: functional, cell-based, Homo sapiens; settings: Homo sapiens, C32;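 also: cell viability assay, with IC50 reflecting inhibition of C32 cell growth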
Description: SANGER: Inhibition of human C32 cell growth in a cell viability assay.

FTC-133 = test: cells; assay type: functional, cell-based, Homo sapiens; settings: Homo sapiens, FTC-133
OE33 = test: cells; assay type: functional, cell-based, Homo sapiens; settings: Homo sapiens, OE33;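 also: growth inhibition of human OE33 cells, measured by a cell viability assay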
Description: SANGER: Inhibition of human OE33 cell growth in a cell viability assay.

Daoy = test: cells; assay type: functional, cell-based, Homo sapiens; settings: Homo sapiens, Daoy;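 also: daoy cell growth inhibition, read out as cell viability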
Description: SANGER: Inhibition of human Daoy cell growth in a cell viability assay.

ES6 = test: cells; assay type: functional, cell-based, Homo sapiens; settings: Homo sapiens, ES6;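 also: growth inhibition of human ES6 cells, read out with a cell viability assay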
Description: SANGER: Inhibition of human ES6 cell growth in a cell viability assay.

RCC10RGB = test: cells; assay type: functional, cell-based, Homo sapiens; settings: Homo sapiens, RCC10RGB;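 also: growth inhibition of human RCC10RGB cells, read out by a cell viability assay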
Description: SANGER: Inhibition of human RCC10RGB cell growth in a cell viability assay.

NCI-H2122 = test: cells; assay type: functional, cell-based, Homo sapiens; settings: Homo sapiens, NCI-H2122;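 also: growth inhibition of the cells, read out with a cell viability assay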
Description: SANGER: Inhibition of human NCI-H2122 cell growth in a cell viability assay.

D-542MG = test: cells; assay type: functional, cell-based, Homo sapiens; settings: Homo sapiens, D-542MG
Description: SANGER: Inhibition of human D-542MG cell growth in a cell viability assay.

S-117 = test: cells; assay type: functional, cell-based, Homo sapiens; settings: Homo sapiens, S-117
Description: SANGER: Inhibition of human S-117 cell growth in a cell viability assay.

Ca-Ski = test: cells; assay type: functional, cell-based, Homo sapiens; settings: Homo sapiens, Ca-Ski;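 also: cell viability assay measuring inhibition of Ca-Ski cell growth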
Description: SANGER: Inhibition of human Ca-Ski cell growth in a cell viability assay.

no-10 = test: cells; assay type: functional, cell-based, Homo sapiens; settings: Homo sapiens;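 also: growth inhibition of no-10 cells, read out with a cell viability assay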
Description: SANGER: Inhibition of human no-10 cell growth in a cell viability assay.

GCIY = test: cells; assay type: functional, cell-based, Homo sapiens; settings: Homo sapiens, GCIY;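 also: growth inhibition of the human GCIY cell line, read out by a cell viability assay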
Description: SANGER: Inhibition of human GCIY cell growth in a cell viability assay.

JAR = test: cells; assay type: functional, cell-based, Homo sapiens; settings: Homo sapiens, JAR;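 also: growth inhibition of human JAR cells determined with a cell viability assay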
Description: SANGER: Inhibition of human JAR cell growth in a cell viability assay.

SW1573 = test: cells; assay type: functional, cell-based, Homo sapiens; settings: Homo sapiens, SW1573;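 also: growth inhibition of SW1573 cells, read out with a cell viability assay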
Description: SANGER: Inhibition of human SW1573 cell growth in a cell viability assay.

HAL-01 = test: cells; assay type: functional, cell-based, Homo sapiens; settings: Homo sapiens, HAL-01;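 also: growth inhibition of human HAL-01 cells, read out with a cell viability assay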
Description: SANGER: Inhibition of human HAL-01 cell growth in a cell viability assay.

TE-8 = test: cells; assay type: functional, cell-based, Homo sapiens; settings: Homo sapiens, TE-8;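 also: growth inhibition of TE-8 cells, measured with a cell viability readout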
Description: SANGER: Inhibition of human TE-8 cell growth in a cell viability assay.

EFM-19 = test: cells; assay type: functional, cell-based, Homo sapiens; settings: Homo sapiens, EFM-19;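 also: growth inhibition of human EFM-19 cells, measured in a cell viability assay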
Description: SANGER: Inhibition of human EFM-19 cell growth in a cell viability assay.

C-33-A = test: cells; assay type: functional, cell-based, Homo sapiens; settings: Homo sapiens, C-33-A;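 also: cell viability assay measuring growth inhibition of C-33-A cells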
Description: SANGER: Inhibition of human C-33-A cell growth in a cell viability assay.

C2BBe1 = test: cells; assay type: functional, cell-based, Homo sapiens; settings: Homo sapiens, C2BBe1;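 also: growth inhibition of C2BBe1 cells, read out through a viability assay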
Description: SANGER: Inhibition of human C2BBe1 cell growth in a cell viability assay.

769-P = test: cells; assay type: functional, cell-based, Homo sapiens; settings: Homo sapiens, 769-P
Description: SANGER: Inhibition of human 769-P cell growth in a cell viability assay.

NCI-H2171 = test: cells; assay type: functional, cell-based, Homo sapiens; settings: Homo sapiens, NCI-H2171;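 also: growth inhibition of human NCI-H2171 cells, read out by a cell viability assay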
Description: SANGER: Inhibition of human NCI-H2171 cell growth in a cell viability assay.

KGN = test: cells; assay type: functional, cell-based, Homo sapiens; settings: Homo sapiens, KGN;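 also: growth inhibition of KGN cells, read out with a cell viability assay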
Description: SANGER: Inhibition of human KGN cell growth in a cell viability assay.

LS-411N = test: cells; assay type: functional, cell-based, Homo sapiens; settings: Homo sapiens, LS-411N
SCC-9 = test: cells; assay type: functional, cell-based, Homo sapiens; settings: Homo sapiens, SCC-9;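 also: Read-out is a cell viability assay, with values giving inhibition of cell growth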
Description: SANGER: Inhibition of human SCC-9 cell growth in a cell viability assay.

BEN = test: cells; assay type: functional, cell-based, Homo sapiens; settings: Homo sapiens, BEN;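 also: growth inhibition of the BEN cell line, read out with a cell viability assay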
Description: SANGER: Inhibition of human BEN cell growth in a cell viability assay.

NCI-H510A = test: cells; assay type: functional, cell-based, Homo sapiens; settings: Homo sapiens, NCI-H510A;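 also: growth inhibition of NCI-H510A cells, read out with a cell viability assay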
Description: SANGER: Inhibition of human NCI-H510A cell growth in a cell viability assay.

MC-CAR = test: cells; assay type: functional, cell-based, Homo sapiens; settings: Homo sapiens, MC-CAR;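 also: growth inhibition of the human MC-CAR cell line, read out by a cell viability assay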
Description: SANGER: Inhibition of human MC-CAR cell growth in a cell viability assay.

EW-16 = test: cells; assay type: functional, cell-based, Homo sapiens; settings: Homo sapiens, EW-16;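 also: growth inhibition of human EW-16 cells, read out as cell viability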
Description: SANGER: Inhibition of human EW-16 cell growth in a cell viability assay.

UO-31 = test: cells; assay type: functional, cell-based, Homo sapiens; settings: Homo sapiens, UO-31
Description: SANGER: Inhibition of human U031 cell growth in a cell viability assay.

MDA-MB-231 = test: cells; assay type: functional, cell-based, Homo sapiens; settings: Homo sapiens, MDA-MB-231
Description: SANGER: Inhibition of human MDA-MB-231 cell growth in a cell viability assay.

HD-MY-Z = test: cells; assay type: functional, cell-based, Homo sapiens; settings: Homo sapiens, HD-MY-Z;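 also: growth inhibition of HD-MY-Z cells, read out with a cell viability assay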
Description: SANGER: Inhibition of human HD-MY-Z cell growth in a cell viability assay.

NCI-H1522 = test: cells; assay type: functional, cell-based, Homo sapiens; settings: Homo sapiens, NCI-H1522;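 also: growth inhibition of NCI-H1522 cells, read out with a cell viability assay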
Description: SANGER: Inhibition of human NCI-H1522 cell growth in a cell viability assay.

TYK-nu = test: cells; assay type: functional, cell-based, Homo sapiens; settings: Homo sapiens, TYK-nu;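 also: growth inhibition of human TYK-nu cells, read out by a cell viability assay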
Description: SANGER: Inhibition of human TYK-nu cell growth in a cell viability assay.

KYSE-140 = test: cells; assay type: functional, cell-based, Homo sapiens; settings: Homo sapiens, KYSE-140;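 also: cell viability assay measuring growth inhibition in human KYSE-140 cells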
Description: SANGER: Inhibition of human KYSE-140 cell growth in a cell viability assay.

AN3-CA = test: cells; assay type: functional, cell-based, Homo sapiens; settings: Homo sapiens, AN3-CA;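 also: growth inhibition of human AN3-CA cells measured by a cell viability assay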
Description: SANGER: Inhibition of human AN3-CA cell growth in a cell viability assay.

BL-41 = test: cells; assay type: functional, cell-based, Homo sapiens; settings: Homo sapiens, BL-41;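 also: growth inhibition of human BL-41 cells, read out with a cell viability assay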
Description: SANGER: Inhibition of human BL-41 cell growth in a cell viability assay.

Hs-578T = test: cells; assay type: functional, cell-based, Homo sapiens; settings: Homo sapiens, Hs-578T
Description: SANGER: Inhibition of human Hs-578-T cell growth in a cell viability assay.

NCI-H446 = test: cells; assay type: functional, cell-based, Homo sapiens; settings: Homo sapiens, NCI-H446;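 also: growth inhibition of NCI-H446 cells determined by a cell viability assay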
Description: SANGER: Inhibition of human NCI-H446 cell growth in a cell viability assay.

NCI-H1563 = test: cells; assay type: functional, cell-based, Homo sapiens; settings: Homo sapiens, NCI-H1563;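 also: growth inhibition of human NCI-H1563 cells, read out with a cell viability assay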
Description: SANGER: Inhibition of human NCI-H1563 cell growth in a cell viability assay.

Calu-3 = test: cells; assay type: functional, cell-based, Homo sapiens; settings: Homo sapiens, Calu-3;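 also: growth inhibition of human Calu-3 cells, determined with a cell viability assay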
Description: SANGER: Inhibition of human Calu-3 cell growth in a cell viability assay.

COLO-684 = test: cells; assay type: functional, cell-based, Homo sapiens; settings: Homo sapiens, COLO-684
Description: SANGER: Inhibition of human COLO-684 cell growth in a cell viability assay.

SU-DHL-1 = test: SANGER: Inhibition of human SU-DHL-1 cell growth in a cell viability assay.; assay type: functional, cell-based; settings: Homo sapiens, SU-DHL-1
P31-FUJ = test: cells; assay type: functional, cell-based, Homo sapiens; settings: Homo sapiens, P31-FUJ;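 also: growth inhibition of P31-FUJ cells, read out with a viability assay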
Description: SANGER: Inhibition of human P31-FUJ cell growth in a cell viability assay.

SK-PN-DW = test: cells; assay type: functional, cell-based, Homo sapiens; settings: Homo sapiens, SK-PN-DW;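 also: growth inhibition measured with a viability assay on these cells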
Description: SANGER: Inhibition of human SK-PN-DW cell growth in a cell viability assay.

PANC-08-13 = test: cells; assay type: functional, cell-based, Homo sapiens; settings: Homo sapiens, PANC-08-13
Description: SANGER: Inhibition of human PANC-08-13 cell growth in a cell viability assay.

DU-4475 = test: cells; assay type: functional, cell-based, Homo sapiens; settings: Homo sapiens, DU-4475
Description: SANGER: Inhibition of human DU-4475 cell growth in a cell viability assay.

**Q.** Which results are given for `Cc1cc([N+](=O)[O-])ccc1NS(=O)(=O)c1cc(Cl)ccc1Cl`?
**A.** IC50 (DMS-153): 29.1 µM; IC50 (SNU-16): > 32 µM; IC50 (C32): < 0.125 µM; IC50 (FTC-133): 6.74 µM; IC50 (OE33): 9.49 µM; IC50 (Daoy): 4.14 µM; IC50 (ES6): 3.03 µM; IC50 (RCC10RGB): > 32 µM; IC50 (NCI-H2122): 1.17 µM; IC50 (D-542MG): 0.277 µM; IC50 (S-117): < 0.125 µM; IC50 (Ca-Ski): 12.1 µM; IC50 (no-10): > 32 µM; IC50 (GCIY): 2.94 µM; IC50 (JAR): 23 µM; IC50 (SW1573): 9.54 µM; IC50 (HAL-01): 12.4 µM; IC50 (TE-8): 5.76 µM; IC50 (EFM-19): 5.44 µM; IC50 (C-33-A): 2 µM; IC50 (C2BBe1): 25.4 µM; IC50 (769-P): 6.73 µM; IC50 (NCI-H2171): > 32 µM; IC50 (KGN): 4.2 µM; IC50 (LS-411N): 4.52 µM; IC50 (SCC-9): > 32 µM; IC50 (BEN): 2.28 µM; IC50 (NCI-H510A): 20.2 µM; IC50 (MC-CAR): 8.99 µM; IC50 (EW-16): 4.59 µM; IC50 (UO-31): 8.66 µM; IC50 (MDA-MB-231): 14.3 µM; IC50 (HD-MY-Z): 14.3 µM; IC50 (NCI-H1522): > 32 µM; IC50 (TYK-nu): 2.01 µM; IC50 (KYSE-140): 4.58 µM; IC50 (AN3-CA): 1.08 µM; IC50 (BL-41): > 32 µM; IC50 (Hs-578T): 11.5 µM; IC50 (NCI-H446): > 32 µM; IC50 (NCI-H1563): 9.47 µM; IC50 (Calu-3): 2.87 µM; IC50 (COLO-684): 12.1 µM; IC50 (SU-DHL-1): > 32 µM; IC50 (P31-FUJ): 7.77 µM; IC50 (SK-PN-DW): 11.6 µM; IC50 (PANC-08-13): > 32 µM; IC50 (DU-4475): 7.83 µM

**Q.** How did the IC50 (DMS-153) turn out when `Oc1ccc2ccccc2c1SSc1c(O)ccc2ccccc12` was run?
**A.** Its IC50 is greater than 32 µM.

**Q.** What about the IC50 (SNU-16) of the same compound?
**A.** The IC50 was greater than 32 µM.

**Q.** What about the IC50 (C32) of the same compound?
**A.** The IC50 was greater than 32 µM.

**Q.** And the IC50 (FTC-133)?
**A.** The IC50 was greater than 32 µM.

**Q.** And the IC50 (OE33)?
**A.** Its IC50 is greater than 32 µM.

**Q.** What about the IC50 (Daoy) of the same compound?
**A.** The IC50 was 3.25 µM.

**Q.** And the IC50 (ES6)?
**A.** Its IC50 is greater than 32 µM.

**Q.** What about the IC50 (RCC10RGB) of the same compound?
**A.** The IC50 was greater than 32 µM.

**Q.** What about the IC50 (NCI-H2122) of the same compound?
**A.** The IC50 was greater than 32 µM.

**Q.** And the IC50 (D-542MG)?
**A.** Its IC50 is 27.2 µM.

**Q.** And the IC50 (S-117)?
**A.** The IC50 was 31.4 µM.

**Q.** What about the IC50 (Ca-Ski) of the same compound?
**A.** Its IC50 is greater than 32 µM.

**Q.** And the IC50 (no-10)?
**A.** Its IC50 is greater than 32 µM.

**Q.** What about the IC50 (GCIY) of the same compound?
**A.** The IC50 was greater than 32 µM.

**Q.** And the IC50 (JAR)?
**A.** The IC50 was greater than 32 µM.

**Q.** And the IC50 (SW1573)?
**A.** Its IC50 is greater than 32 µM.

**Q.** What about the IC50 (HAL-01) of the same compound?
**A.** The IC50 was 25.8 µM.

**Q.** And the IC50 (TE-8)?
**A.** The IC50 was greater than 32 µM.

**Q.** What about the IC50 (EFM-19) of the same compound?
**A.** The IC50 was 27.3 µM.

**Q.** What about the IC50 (C-33-A) of the same compound?
**A.** Its IC50 is greater than 32 µM.

**Q.** And the IC50 (C2BBe1)?
**A.** The IC50 was greater than 32 µM.

**Q.** What about the IC50 (769-P) of the same compound?
**A.** The IC50 was greater than 32 µM.

**Q.** What about the IC50 (NCI-H2171) of the same compound?
**A.** The IC50 was greater than 32 µM.

**Q.** What about the IC50 (KGN) of the same compound?
**A.** The IC50 was 12.4 µM.

**Q.** What about the IC50 (LS-411N) of the same compound?
**A.** Its IC50 is greater than 32 µM.

**Q.** What about the IC50 (SCC-9) of the same compound?
**A.** Its IC50 is greater than 32 µM.

**Q.** What about the IC50 (BEN) of the same compound?
**A.** Its IC50 is greater than 32 µM.

**Q.** And the IC50 (NCI-H510A)?
**A.** Its IC50 is greater than 32 µM.

**Q.** What about the IC50 (MC-CAR) of the same compound?
**A.** Its IC50 is 5.71 µM.

**Q.** And the IC50 (EW-16)?
**A.** Its IC50 is 24.8 µM.

**Q.** What about the IC50 (UO-31) of the same compound?
**A.** Its IC50 is greater than 32 µM.

**Q.** What about the IC50 (MDA-MB-231) of the same compound?
**A.** Its IC50 is greater than 32 µM.

**Q.** What about the IC50 (HD-MY-Z) of the same compound?
**A.** The IC50 was greater than 32 µM.

**Q.** And the IC50 (NCI-H1522)?
**A.** The IC50 was greater than 32 µM.

**Q.** And the IC50 (TYK-nu)?
**A.** Its IC50 is greater than 32 µM.

**Q.** What about the IC50 (KYSE-140) of the same compound?
**A.** Its IC50 is greater than 32 µM.

**Q.** And the IC50 (AN3-CA)?
**A.** The IC50 was 14.3 µM.

**Q.** What about the IC50 (BL-41) of the same compound?
**A.** The IC50 was 3.1 µM.

**Q.** What about the IC50 (Hs-578T) of the same compound?
**A.** Its IC50 is greater than 32 µM.

**Q.** What about the IC50 (NCI-H446) of the same compound?
**A.** The IC50 was greater than 32 µM.

**Q.** What about the IC50 (NCI-H1563) of the same compound?
**A.** Its IC50 is greater than 32 µM.

**Q.** What about the IC50 (Calu-3) of the same compound?
**A.** Its IC50 is greater than 32 µM.

**Q.** What about the IC50 (COLO-684) of the same compound?
**A.** The IC50 was 20.3 µM.

**Q.** What about the IC50 (SU-DHL-1) of the same compound?
**A.** Its IC50 is greater than 32 µM.

**Q.** What about the IC50 (P31-FUJ) of the same compound?
**A.** Its IC50 is greater than 32 µM.

**Q.** What about the IC50 (SK-PN-DW) of the same compound?
**A.** The IC50 was 27.9 µM.

**Q.** What about the IC50 (PANC-08-13) of the same compound?
**A.** Its IC50 is greater than 32 µM.

**Q.** And the IC50 (DU-4475)?
**A.** Its IC50 is greater than 32 µM.
